Measured values: patent US20230365558A1, “TETRAHYDROISOQUINOLINE DERIVATIVE AND USE THEREOF” (MEDSHINE DISCOVERY INC., priority 2020, published 2023)
Where two headings read alike, the source gives them in different places.

How the values were obtained:
PRMT5 enzyme = PRMT5 enzyme (Homo sapiens (Human), UniProt O14744); assay: PRMT5 enzyme inhibitory activity assay (LANCE Ultra TR-FRET); type: biochemical
Method: Experimental objective: To test the inhibitory effect of compounds on PRMT5 enzyme activity
Experimental materials: PRMT5 enzyme
The plate was incubated at 25° C. for 30 min, then added with substrate, and reacted at 25° C. for 90 min. After 90 min, the detection reagent was added to the 384-well plate using PerkinElmer LANCE Ultra TR-FRET standard method to combine with the enzyme-substrate reaction product. […] Raw data were used to calculate the inhibition rate of the test compounds using the following equation: […]
(§1) The inhibition rates were imported into Excel separately to calculate the inhibition rates of compounds at different concentrations, and then XLfit software was used to plot inhibition curves and calculate relevant parameters, including minimum inhibition rate, maximum inhibition rate and IC50.

[1] = tested on: Z-138 non-Hodgkin's lymphoma cells; assay: In vitro anti-proliferation assay of Z-138 cells (CellTiter-Glo, 6 days); type: cell-based, human; conditions: read-out: IC50 (nM), in vitro anti-proliferative activity on Z-138 tumor cells
Method: The plate was incubated at 37° C., CO2 and 100% relative humidity for 6 days. Samples were processed using Promega CellTiter-Glo Luminescent Cell Viability Assay Kit (Promega-G7571) standard method, and the luminescent signal was detected on a TECAN Spark®10M plate reader. Raw data were used to calculate the inhibition rate of the test compounds using the following equation: […]
as §1

[2] = Pharmacokinetic evaluation in CD-1 mice; conditions: for Clearance rate CL / Concentration integral AUC / Half-life T1/2 / Bioavailability F: CD-1 mice; for AUC / clearance / half-life / bioavailability: male, CD-1, mouse, in vivo
Method: Experimental objective: To study the pharmacokinetic parameters of the compounds in CD-1 mice
Animal experimental design: Male CD-1 mice (28.08 to 29.01 g, 6 to 7 weeks old), purchased from Shanghai Family Planning Research Institute, n=2/group, 4 mice in total; blood collection time points (h): 0.083 (intravenous injection only), 0.25 (intragastric administration only), 0.5, 1, 2, 4, 8, 10 and 24; compound dose by tail vein injection: 1 mg/kg; single dose by intragastric administration: 5 mg/kg; intravenous and intragastric administration vehicles: 20% N,N-dimethylacetamide aqueous solution, 20% hydroxypropyl-β-cyclodextrin aqueous solution, 5% DMSO/50% PEG400/45% water for injection or 10% Solutol/30% PEG400/60% water for injection. All animals had free access to water during the experiment, fasted overnight before administration, and resumed food supply 4 hours after administration. The entire animal experiment complied with the Institutional Animal Care and Use Committee (IACUC) animal welfare.
Sample collection and storage: After administration, approximately 0.03 mL of blood was collected from the saphenous vein of the mouse at each time point into a pre-frozen commercial EDTA-K2 tube, and placed on wet ice until centrifugation. Blood samples were centrifuged at 4° C., 3,200 g for 10 min. Plasma was collected separately, transferred to a pre-labeled 96-well plate, fast frozen on dry ice, and stored at −70±10° C. until LC-MS/MS analysis.
Pre-treatment of plasma samples: 3 μL of unknown, standard curve, QC, diluted QC and single and double blank samples were taken and placed in 1.5 mL tubes, and 60 μL of internal standard solution (internal standard: Labetalol 100 ng/mL acetonitrile solution, double blank with the same volume of pure acetonitrile) was added. The samples were vortexed for at least 15 seconds, and centrifuged at 4° C., 12,000 g for 15 min. 50 μL of the supernatant was taken and placed on a clean 96-well plate, and 200 μL of 70% acetonitrile was added. The plate was vortex at 800 rpm for 10 min, and centrifuged at 4° C., 3,220 g for 5 min. 2.0 μL of the supernatant was taken for LC-MS/MS analysis. 10-fold sample dilution procedure: 2 μL of the sample was added to 18 μL of blank matrix; 2-fold sample dilution procedure: 2 μL of the sample was added to 2 μL of blank matrix. Plasma was processed in the same manner as undiluted samples. The linear range was 4.00 to 6000 nM. Plasma concentrations would be analyzed with Triple Quad 6500 Plus, and pharmacokinetic parameters would be calculated with Phoenix WinNonlin 6.3.

[3] = tested on: MDA-MB-468 human breast cancer cells; assay: Anti-proliferative activity on MDA-MB-468 cells (CellTiter-Glo, 7 days); type: cell-based; conditions: Homo sapiens, 168 h, read-out: IC50 (nM), in vitro anti-proliferative activity on MDA-MB-468 tumor cells
Method: CellTiter-Glo (chemiluminescent cell viability detection reagent, purchased from Promega).
MDA-MB-468 cells were planted in a white 384-well plate with 40 μL of cell suspension per well, which contained 1000 MDA-MB-468 cells. The cell plate was cultured in a CO2 incubator overnight. […] 78 μL of culture medium was added to a middle plate, and then 2 μL of gradient diluted compound per well was transferred to the middle plate according to the corresponding position. After being thoroughly mixed, 10 μL per well was transferred to the cell plate. […] The cell plate was cultured in a CO2 incubator for 7 days. Another cell plate was prepared, and the signal value was read on the day of administration as the maximum value (Max value in the equation below) to participate in data analysis. 10 μL of chemiluminescent cell viability detection reagent per well was added to the cell plate, and the plate was incubated at room temperature for 10 min to stabilize the luminescent signal. A multi-label analyzer was used for reading. After the incubation of the cell plate with the compound was completed, 10 μL of chemiluminescent cell viability detection reagent per well was added to the cell plate, and the plate was incubated at room temperature for 10 min to stabilize the luminescent signal. A multi-label analyzer was used for reading.

[4] = injection administration (1 mg/kg)

Chain of PRMT5 enzyme (O14744 whole entry): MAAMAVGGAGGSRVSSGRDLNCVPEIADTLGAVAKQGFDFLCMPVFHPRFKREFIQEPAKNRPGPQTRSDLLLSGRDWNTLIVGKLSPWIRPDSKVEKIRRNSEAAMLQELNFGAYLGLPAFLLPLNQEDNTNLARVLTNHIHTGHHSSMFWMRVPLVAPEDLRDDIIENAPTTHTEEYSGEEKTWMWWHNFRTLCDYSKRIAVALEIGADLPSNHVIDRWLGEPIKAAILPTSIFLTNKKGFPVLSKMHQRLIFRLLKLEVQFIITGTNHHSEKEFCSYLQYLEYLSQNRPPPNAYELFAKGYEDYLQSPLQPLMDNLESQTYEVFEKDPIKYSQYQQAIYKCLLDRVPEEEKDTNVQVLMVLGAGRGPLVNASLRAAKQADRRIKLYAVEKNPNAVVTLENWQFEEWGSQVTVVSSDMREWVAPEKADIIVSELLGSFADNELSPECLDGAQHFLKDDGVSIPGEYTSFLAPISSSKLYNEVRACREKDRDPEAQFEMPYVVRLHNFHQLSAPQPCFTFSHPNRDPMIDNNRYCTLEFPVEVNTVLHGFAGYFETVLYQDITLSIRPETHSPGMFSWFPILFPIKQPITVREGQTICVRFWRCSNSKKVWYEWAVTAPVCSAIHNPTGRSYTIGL
Chain of PRMT5 enzyme (Q9BQA1 whole entry partner): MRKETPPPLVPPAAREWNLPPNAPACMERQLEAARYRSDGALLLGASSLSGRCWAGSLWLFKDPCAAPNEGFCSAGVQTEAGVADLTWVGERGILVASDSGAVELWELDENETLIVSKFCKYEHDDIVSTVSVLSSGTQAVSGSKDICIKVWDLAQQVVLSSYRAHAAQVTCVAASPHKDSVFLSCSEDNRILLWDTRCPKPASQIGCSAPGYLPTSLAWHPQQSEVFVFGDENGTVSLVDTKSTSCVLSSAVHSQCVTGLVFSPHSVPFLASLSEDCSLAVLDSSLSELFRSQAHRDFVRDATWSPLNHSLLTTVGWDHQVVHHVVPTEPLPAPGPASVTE

Row | Compound | IC50 ([1]; Homo sapiens, Z-138, 144 h) [nM] | IC50 (PRMT5 enzyme) [nM] | IC50 [1] [nM] | Clearance rate CL [2, 4] [mL/min/kg] | Concentration integral AUC [2, 4] [µM·h] | Half-life T1/2 [2, 4] [min] | Bioavailability F ([2]; oral administration (5 mg/kg)) [%] | Concentration integral AUC ([2]; oral administration (5 mg/kg)) [µM·h] | also measured
1 | O=C(NC[C@H](O)CN1CCc2ccccc2C1)c1ccc2c(c1)NC(=O)C1(CCCC1)O2 [Compound 2] |  | 128 | 24 | 39.7 | 0.967 | 33.6 | 8.6 | 0.417 | 
2 | O=C(NC[C@H](O)CN1CCc2ccccc2C1)c1ccc2c(c1)NC(=O)C1(CCCCC1)O2 [Compound 3] |  | 18 | 78 | 78.1 | 0.474 | 9.6 | 7.2 | 0.171 | 
3 | O=C(NC[C@H](O)CN1CCc2ccccc2C1)c1ccc2c(c1)NC(=O)C1(CCOCC1)O2 [Compound 4] |  | 22 |  | 63.3 | 0.583 | 16.2 | 21.5 | 0.626 | 
4 | O=C(NC[C@H](O)CN1CCc2ccccc2C1)c1cnc2c(c1)NC(=O)C1(CCC1)O2 [Compound 6] |  |  | 6 | 42.1 | 0.944 | 14.4 | 16.4 | 0.773 | 
5 | O=C(NC[C@H](O)CN1CCc2ccccc2C1)c1ccc2c(c1)NC(=O)C1(CC1)O2 [Compound 7] |  |  | 73 | 17.7 | 2.313 | 82.8 | 64.2 | 7.419 | 
6 | CC(C)N1CC2(C1)Oc1ccc(C(=O)NC[C@H](O)CN3CCc4ccccc4C3)cc1NC2=O [Compound 9] | 100 | 36 |  |  |  |  |  |  | AUC ([2]; 1 mg/kg): 0.336 µM·h; clearance ([2]; 1 mg/kg): 107 mL/min/kg; half-life ([2]; 1 mg/kg): 129 min; AUC ([2]; po, 5 mg/kg): 0.168 µM·h; bioavailability ([2]; po, 5 mg/kg): 10%
7 | O=C(NC[C@H](O)CN1CCc2ccccc2C1)c1ccc2c(c1)NC(=O)C1(CN(CC(F)(F)F)C1)O2 [Compound 10] | 23 |  |  |  |  |  |  |  | AUC ([2]; 1 mg/kg): 0.785 µM·h; clearance ([2]; 1 mg/kg): 42.1 mL/min/kg; half-life ([2]; 1 mg/kg): 33 min; AUC ([2]; po, 5 mg/kg): 0.572 µM·h; bioavailability ([2]; po, 5 mg/kg): 14.6%
8 | CC(=O)N1CC2(C1)Oc1ccc(C(=O)NC[C@H](O)CN3CCc4ccccc4C3)cc1NC2=O [Compound 11] | 88 |  |  |  |  |  |  |  | 
9 | CS(=O)(=O)N1CC2(C1)Oc1ccc(C(=O)NC[C@H](O)CN3CCc4ccccc4C3)cc1NC2=O [Compound 14] | 14 |  |  |  |  |  |  |  | 
10 | O=C(NC[C@H](O)CN1CCc2ccccc2C1)c1cc2c(nn1)OC1(CC1)C(=O)N2 [Compound 16] |  |  | 90 |  |  |  |  |  | 
11 | CCOC1CC2(C1)Oc1ccc(C(=O)NC[C@H](O)CN3CCc4ccccc4C3)cc1NC2=O (stereo partly shown) [Compound 21] | 18 |  |  |  |  |  |  |  | 

Second part, led by results:

Row | IC50 ([1]; Homo sapiens, Z-138, 144 h) [nM] | Compound | IC50 (PRMT5 enzyme) [nM] | IC50 [1] [nM] | Clearance rate CL [2, 4] [mL/min/kg] | Concentration integral AUC [2, 4] [µM·h] | Half-life T1/2 [2, 4] [min] | Bioavailability F ([2]; oral administration (5 mg/kg)) [%] | Concentration integral AUC ([2]; oral administration (5 mg/kg)) [µM·h] | also measured
12 | 10 | O=C(NC[C@H](O)CN1CCc2ccccc2C1)c1cnc2c(c1)NC(=O)C1(CC1)O2 [Compound 8] | 15 |  |  |  |  |  |  | IC50 [3]: 12 nM; AUC ([2]; iv, 1 mg/kg): 0.875 µM·h; clearance ([2]; iv, 1 mg/kg): 53.3 mL/min/kg; half-life ([2]; iv, 1 mg/kg): 54.6 min; AUC ([2]; po, 5 mg/kg): 1.03 µM·h; bioavailability ([2]; po, 5 mg/kg): 24.5%
13 | 47 | COCCN1CC2(C1)Oc1ccc(C(=O)NC[C@H](O)CN3CCc4ccccc4C3)cc1NC2=O [Compound 13] |  |  |  |  |  |  |  | 
14 | 18 | O=C(NC[C@H](O)CN1CCc2ccccc2C1)c1ccc2c(c1)NC(=O)C1(CC(O)C1)O2 (stereo partly shown) [Compound 18] |  |  |  |  |  |  |  | AUC ([2]; 1 mg/kg): 0.545 µM·h; clearance ([2]; 1 mg/kg): 71.3 mL/min/kg; half-life ([2]; 1 mg/kg): 24.6 min; AUC ([2]; po, 5 mg/kg): 0.164 µM·h; bioavailability ([2]; po, 5 mg/kg): 6.02%
